The values below come from patent US9724352B2, “Pyrrolo[2,1-F[1,2,4]triazine compounds, preparation methods and applications thereof” (Shanghai Institute of Materia Medica, Chinese Academy of …, priority 2012, dated 2017).

Test [1] concerns human rhabdomyosarcoma Rh30 cells. Briefly: Proliferation of Rh30 cells (sulforhodamine B). It counts as cell-based. How it is done: Rh30 cells were seeded in a 96-well plate at 3000 cells/well. After the cells adhered, tested compounds at concentration of 10, 3, 1, 0.3, or 0.1 μM were added, and incubated for 72 h. The culture media were discarded and cells were fixed with trichloroacetic acid. After washed with distilled water for five times and dried, sulfonylrhodamine B was added. After washed with 1% glacial acetic acid for five times and dried, trihydroxymethylaminomethane buffer was added. OD value was measured by using a microplate reader at a wavelength of 560 nm.

Another test has as its target PI3Kα (Homo sapiens (Human), UniProt P42336). The test is described as follows: Inhibition on PI3K kinase activity (Kinase-Glo Plus luminescent assay). It is filed as biochemical. Conditions: 2 μM ATP, 1 hour at room temperature. How it is done: The activity of purified kinase was detected with Kinase-Glo® Plus kinase luminescent assay by measuring the amount of the remaining […] in the solution after the kinase reaction was completed. […] After reaction was performed for 1 hour at room temperature, 10 μL of Kinase Glo-Plus mixture was added and incubated for 1 hour to quench the reaction.

SMILES strings stand for the structures.

Chain of PI3Kα (P42336 whole entry): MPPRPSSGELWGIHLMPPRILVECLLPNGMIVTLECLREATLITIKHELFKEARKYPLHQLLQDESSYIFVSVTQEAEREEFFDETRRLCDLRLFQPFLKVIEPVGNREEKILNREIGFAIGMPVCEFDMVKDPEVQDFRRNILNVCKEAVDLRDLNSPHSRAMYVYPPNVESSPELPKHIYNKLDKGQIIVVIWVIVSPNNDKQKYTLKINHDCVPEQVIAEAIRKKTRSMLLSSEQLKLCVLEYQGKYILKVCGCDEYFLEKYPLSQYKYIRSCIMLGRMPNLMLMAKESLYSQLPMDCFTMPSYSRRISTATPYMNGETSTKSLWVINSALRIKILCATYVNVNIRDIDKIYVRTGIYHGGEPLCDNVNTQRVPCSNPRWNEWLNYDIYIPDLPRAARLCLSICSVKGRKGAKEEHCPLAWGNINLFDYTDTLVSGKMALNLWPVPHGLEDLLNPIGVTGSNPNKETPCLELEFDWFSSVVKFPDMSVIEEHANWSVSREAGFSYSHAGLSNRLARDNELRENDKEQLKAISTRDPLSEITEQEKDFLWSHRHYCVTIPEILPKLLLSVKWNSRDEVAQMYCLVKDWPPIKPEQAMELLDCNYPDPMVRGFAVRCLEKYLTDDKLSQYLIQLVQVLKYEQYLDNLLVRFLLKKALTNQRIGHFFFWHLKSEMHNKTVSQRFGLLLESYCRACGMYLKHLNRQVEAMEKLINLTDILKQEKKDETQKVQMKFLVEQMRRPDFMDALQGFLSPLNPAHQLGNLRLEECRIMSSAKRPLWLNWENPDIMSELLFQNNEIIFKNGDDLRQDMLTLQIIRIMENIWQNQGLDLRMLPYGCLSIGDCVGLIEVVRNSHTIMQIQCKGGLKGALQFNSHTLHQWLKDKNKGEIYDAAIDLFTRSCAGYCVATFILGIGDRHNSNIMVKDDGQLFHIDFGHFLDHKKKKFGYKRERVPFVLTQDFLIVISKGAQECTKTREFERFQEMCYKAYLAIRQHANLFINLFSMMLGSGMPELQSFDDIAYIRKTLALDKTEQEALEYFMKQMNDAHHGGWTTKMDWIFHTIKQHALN
Chain of PI3Kα (P27986 whole entry partner): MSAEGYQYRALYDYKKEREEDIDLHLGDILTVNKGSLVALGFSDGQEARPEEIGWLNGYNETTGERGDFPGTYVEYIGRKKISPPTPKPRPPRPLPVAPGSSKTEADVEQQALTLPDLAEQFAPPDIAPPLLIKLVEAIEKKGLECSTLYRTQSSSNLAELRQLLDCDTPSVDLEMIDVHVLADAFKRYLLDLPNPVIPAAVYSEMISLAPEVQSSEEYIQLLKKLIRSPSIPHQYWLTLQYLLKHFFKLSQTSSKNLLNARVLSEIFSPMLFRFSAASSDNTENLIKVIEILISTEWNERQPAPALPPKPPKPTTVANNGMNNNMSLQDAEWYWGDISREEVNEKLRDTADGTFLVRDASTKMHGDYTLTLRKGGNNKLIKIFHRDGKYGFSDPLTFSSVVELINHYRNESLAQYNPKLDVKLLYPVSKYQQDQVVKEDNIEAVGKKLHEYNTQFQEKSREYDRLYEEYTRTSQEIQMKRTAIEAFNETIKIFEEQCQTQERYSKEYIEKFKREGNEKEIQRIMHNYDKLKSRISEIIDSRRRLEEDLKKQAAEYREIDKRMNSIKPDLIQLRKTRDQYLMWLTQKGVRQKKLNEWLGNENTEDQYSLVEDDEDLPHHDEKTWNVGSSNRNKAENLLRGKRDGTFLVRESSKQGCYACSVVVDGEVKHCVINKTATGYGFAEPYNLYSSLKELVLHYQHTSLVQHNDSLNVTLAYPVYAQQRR

`CS(=O)(=O)N1CCN(Cc2cc3c(N4CCOCC4)nc(-c4cnc(NC(=O)Nc5ccc(F)cc5)cc4C(F)(F)F)nn3c2)CC1` [Compound I-28, 1-(4-fluorophenyl)-3-(5-(6-((4-(methylsulfonyl)piperazin-1-yl)methyl)-4-morpholinopyrrolo[2,1-f][1,2,4]triazin-2-yl)-4-(trifluoromethyl)pyridin-2-yl)urea]: in test [1] (72 h), the “inhibitory activity on Rh30 cell proliferation (in words)” value was “tens of nanomolar”. Also, the IC50 was 74 nM in test [1] (Homo sapiens, Rh30, 72 h, read-out: IC50 against proliferation of Rh30 cells) and 9.3 nM on PI3Kα.
